# “Also recorded” adds a separate entry of the source. Where a SMILES comes first, the peptide text is derived from it. The star is where a group is joined. Cbz = O=C(OCc1ccccc1)*
# How the values were obtained:
# α-Synuclein [1] = test: Proteasome inhibition of DaN cultures, α-Synuclein western blot; type: cell-based, human; conditions: DaN cultures treated 24 hrs
# Source text: (§1) Protein degradation can be largely divided into protosomal and autophagy/lysosomal degradation pathways.
# P53 = test: Proteasome inhibition of DaN cultures, P53 western blot; type: cell-based, human; conditions: DaN cultures treated 24 hrs
# Source text: as §1
# TH [2] = test: Injection into ventricles of WT mice, TH in striatum; type: in vivo, mouse; conditions: WT mice, 0.3, 3, and 30 uM injected into ventricles, 1 and 5 days post injection
# Protocol: (§2) In vivo, PEP stimulates synuclein degradation. Dosage studies of 0.3, 3, and 30 uM PEP was injected into the ventricles of WT mice.
# cleaved caspase 3 (CC3) = test: Cleaved caspase 3 in time-course of PEP treatment of DaNs; type: cell-based, human; conditions: PD cells, on drug treatment; listed as PEP
# Source text: (§3) The elevated phosphorylation of PKCa was absent in the undifferentiated iPSCs and no clear pattern was evident in peripheral blood from the individual patients indicating specificity to the differentiated DaNs.
# (§4) It is likely that the toxicity of PEP is more specific to highly proliferative cells whereas our differentiated neurons are largely post mitotoic.
# [3] = system: various cancer cell lines and primary acute myeloid leukaemia (AML) cells; conditions: cited from earlier work
# LC3 = test: Western blot of LC3 in PEP-treated DaNs; type: cell-based, human; conditions: PD cells
# Source text: as §3
# DaN cultures = test: LDH on drug treatment of DaN cultures (cell death); type: cell-based, human
# Source text: as §4
# PKC C1 domains = conditions: cited from earlier work
# TH [4] = test: TH gene expression along time-course of PEP treatment; type: cell-based, human; conditions: paired time-course samples
# Source text: as §3
# LAMP1 = test: Western blot of LAMP1 in PEP-treated DaNs; type: cell-based, human; conditions: for LAMP1 response to treatment: PD cells
# Source text: as §3
# PEP is described as both an activator of the pro-apoptotic […] and an inhibitor of PKCα.
# SNCA = SNCA gene expression along time-course of PEP treatment; type: cell-based, human; conditions: paired time-course samples
# Source text: as §3
# synuclein = test: Injection into ventricles of WT mice, synuclein in striatum; type: in vivo, mouse; conditions: WT mice, 0.3, 3, and 30 uM injected into ventricles, 1 and 5 days post injection
# Protocol: as §2
# α-Synuclein [5] = test: Western blot of α-Synuclein in iPSC-derived DaNs treated with lysosomal agonists; type: cell-based, human; conditions: for amount of α-Synuclein protein: DaNs from control lines
# Protocol: (§5) To test if the Inventors could reduce synuclein levels in our EOSPD DANs through activation of lysosomal specific pathways, the Inventors selected 3 lysosomal agonists. […] Starting at day 27, DaNs were treated for 3 days with the above lysosomal agonists.
# as §3
# TH enzyme = test: Western blot of TH enzyme in treated DaNs; type: cell-based, human; conditions: both control and PD DaNs
# Protocol: as §5
# p-PKCa = test: Western blot of phosphorylated PKC alpha in treated DaNs; type: cell-based, human
# Source text: as §3
# [6] = PKC delta signal in DaN cultures on drug treatment; type: cell-based, human
# Source text: as §4
# PC12 cell model = conditions: cited from earlier work
# [7] = treated 3 days starting at day 27
# [8] = time-course, control and PD DaNs
compound,measurement,setting,value
CC(C)C[C@@H](C=O)NC(=O)[C@H](CC(C)C)NC(=O)[C@H](CC(C)C)NC(=O)OCc1ccccc1 [MG132] (Cbz-Leu-Leu-Leu-aldehyde),α-Synuclein levels,α-Synuclein [1],no substantial change
same,P53 level,P53,accumulation of P53
"C/C=C(/C)C(=O)O[C@H]1C(C)=C[C@]23C(=O)[C@@H](C=C(CO)[C@@H](O)[C@]12O)[C@H]1[C@@H](C[C@H]3C)C1(C)C [PEP005, ingenol-3-angelate]",TH in mouse striatum,TH [2],increase in TH
same,cleaved caspase 3 (CC3) present,cleaved caspase 3 (CC3),marked decrease; also recorded: decrease in the amount of active caspase 3
same,apoptosis,[3]; leukemic cell lines and primary AML cells,induces apoptosis
same,proliferation,[3]; various cancer cell lines and primary AML cells,inhibiting proliferation
same,LC3 response to treatment,LC3,neither LAMP1 nor LC3 respond
same,LDH on drug treatment,DaN cultures,nor do the Inventors see an increase in LDH
same,affinity for PKC C1 domains,PKC C1 domains,subnanomolar affinity
same,selectivity for individual PKC isoforms,PKC C1 domains; in vitro,no selectivity
same,time after initial exposure at which TH is upregulated,TH [4],roughly 8 hours
same,LAMP1 response to treatment,LAMP1,does not appear to be replicated
same,LAMP1 response to treatment,LAMP1; listed as PEP,neither LAMP1 nor LC3 respond
same,lysosomal protein LAMP1,LAMP1; control cells,increase
same,time after treatment at which SNCA is downregulated,SNCA,4 h
same,synuclein in mouse striatum,synuclein,Reduction of synuclein
same,amount of α-Synuclein protein,α-Synuclein [5]; [7],significantly reduced
same,synuclein levels,"α-Synuclein [5]; ESOPD DaNs, treated 3 days starting at day 27",substantially reduced
same,α-Synuclein levels,α-Synuclein [5]; both control and PD DaNs,reduced
same,synuclein,"α-Synuclein [5]; luM PEP005 for 3 days, all treated lines",reduced synuclein
same,time until α-Synuclein is degraded in response to drug treatment,α-Synuclein [5]; [8],≤ 24 h
same,amount of TH enzyme present,TH enzyme,increased amount of TH enzyme present
same,amount of TH enzyme present,TH enzyme; listed as PEP,increase in the amount of TH
same,PKC alpha phosphorylation signal,"p-PKCa; control and PD DaNs, at endpoint",completely ablating this signal
same,elevated phosphorylation of PKCa,"p-PKCa; luM PEP005 for 3 days, DaNs from all iPSC lines",clearly ablated
same,time until p-PKCa is degraded in response to drug treatment,p-PKCa; [8],≤ 24 h
same,PKC6 signal,[6],did not observe a strong PKC6 signal
C=CCNc1ncnc2ccc(Br)cc12 [SMER28],amount of α-Synuclein protein,α-Synuclein [5]; [7],significantly reduced
same,Huntington and α-Synuclein aggregates,PC12 cell model,reduce Huntington and α-Synuclein aggregates
OC[C@H]1O[C@H](O[C@H]2O[C@H](CO)[C@@H](O)[C@H](O)[C@H]2O)[C@H](O)[C@@H](O)[C@@H]1O [Trehalose],amount of α-Synuclein protein,α-Synuclein [5]; [7],not Trehalose significantly reduced

# Reference: patent US12708611B2, “Diagnostic and drug screening for molecular signatures of early onset sporadic parkinson's disease” (CEDARS-SINAI MEDICAL CENTER, priority 2018, dated 2026)
